Results taken from ChEMBL document CHEMBL1287777 (Bioorg Med Chem Lett, 2010).

What was measured:
Carbonic anhydrase 2 = Carbonic anhydrase 2 (Homo sapiens, UniProt P00918)
Carbonic anhydrase 9 = Carbonic anhydrase 9 (Homo sapiens, UniProt Q16790); test: Inhibition of human recombinant CA9 catalytic domain by stopped-flow CO2 hydration method
Carbonic anhydrase 1 = Carbonic anhydrase 1 (Homo sapiens, UniProt P00915); test: Inhibition of full length human CA1 cytosolic isoform by stopped-flow CO2 hydration method
Sequence of Carbonic anhydrase 1 (P00915 whole entry, canonical isoform): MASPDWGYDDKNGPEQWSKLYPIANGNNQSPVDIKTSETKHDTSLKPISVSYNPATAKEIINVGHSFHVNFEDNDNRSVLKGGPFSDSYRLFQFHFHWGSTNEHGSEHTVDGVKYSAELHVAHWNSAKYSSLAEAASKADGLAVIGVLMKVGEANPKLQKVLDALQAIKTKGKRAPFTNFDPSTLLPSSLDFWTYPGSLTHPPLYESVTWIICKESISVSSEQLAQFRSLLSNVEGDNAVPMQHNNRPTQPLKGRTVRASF

Q: How did the Ki (Carbonic anhydrase 2) turn out when `CC(=O)c1cc2ccc(=O)oc2cc1O` was run?
A: Its Ki is > 100 µM.

Q: How did the Ki (Carbonic anhydrase 2) turn out when `CCC(=O)c1cc2ccc(=O)oc2cc1O` was run?
A: The Ki was > 100 µM.

Q: What about the Ki (Carbonic anhydrase 9) of the same compound?
A: The Ki was 8.02 µM.

Q: What does the source list for `CCC(=O)c1c(O)ccc2ccc(=O)oc12`?
A: Ki (Carbonic anhydrase 1): > 100 µM; Ki (Carbonic anhydrase 2): > 100 µM

Q: Which Ki (Carbonic anhydrase 1) does the source give for `COc1cc2oc(=O)ccc2cc1C(C)=O` here?
A: Its Ki is > 100 µM.

Q: What about the Ki (Carbonic anhydrase 2) of the same compound?
A: Its Ki is > 100 µM.

Q: And the Ki (Carbonic anhydrase 9)?
A: Its Ki is 7.8 µM.

Q: Which Ki (Carbonic anhydrase 1) does the source give for `CCOc1cc2oc(=O)ccc2cc1C(C)=O` here?
A: Its Ki is > 100 µM.

Q: And the Ki (Carbonic anhydrase 9)?
A: The Ki was 7.4 µM.

Q: How did the Ki (Carbonic anhydrase 1) turn out when `CCCOc1cc2oc(=O)ccc2cc1C(C)=O` was run?
A: The Ki was > 100 µM.

Q: What about the Ki (Carbonic anhydrase 2) of the same compound?
A: Its Ki is > 100 µM.

Q: And the Ki (Carbonic anhydrase 9)?
A: The Ki was 7.58 µM.

Q: Which Ki (Carbonic anhydrase 1) does the source give for `CCCCOc1cc2oc(=O)ccc2cc1C(C)=O` here?
A: Its Ki is > 100 µM.

Q: What about the Ki (Carbonic anhydrase 2) of the same compound?
A: Its Ki is > 100 µM.

Q: What about the Ki (Carbonic anhydrase 9) of the same compound?
A: Its Ki is > 100 µM.

Q: Which results are given for `COc1ccc2ccc(=O)oc2c1C(C)=O`?
A: Ki (Carbonic anhydrase 1): > 100 µM; Ki (Carbonic anhydrase 2): > 100 µM; Ki (Carbonic anhydrase 9): 0.0783 µM

Q: `CCOc1ccc2ccc(=O)oc2c1C(C)=O` was tested. Which Ki (Carbonic anhydrase 1) did it give?
A: Its Ki is > 100 µM.

Q: What about the Ki (Carbonic anhydrase 2) of the same compound?
A: The Ki was > 100 µM.

Q: What about the Ki (Carbonic anhydrase 9) of the same compound?
A: Its Ki is 0.0708 µM.

Q: Which results are given for `CCCOc1ccc2ccc(=O)oc2c1C(C)=O`?
A: Ki (Carbonic anhydrase 1): > 100 µM; Ki (Carbonic anhydrase 2): > 100 µM; Ki (Carbonic anhydrase 9): 0.0567 µM

Q: With `CCCCOc1ccc2ccc(=O)oc2c1C(C)=O` as the compound, how does the Ki (Carbonic anhydrase 1) read?
A: The Ki was > 100 µM.

Q: What about the Ki (Carbonic anhydrase 2) of the same compound?
A: The Ki was > 100 µM.

Q: How did the Ki (Carbonic anhydrase 1) turn out when `CCC(=O)c1c(OC)ccc2ccc(=O)oc12` was run?
A: Its Ki is > 100 µM.

Q: And the Ki (Carbonic anhydrase 2)?
A: Its Ki is > 100 µM.

Q: And the Ki (Carbonic anhydrase 9)?
A: Its Ki is 0.0378 µM.

Q: For `CCOc1ccc2ccc(=O)oc2c1C(=O)CC`, which Ki (Carbonic anhydrase 1) is on record?
A: The Ki was > 100 µM.

Q: What about the Ki (Carbonic anhydrase 2) of the same compound?
A: Its Ki is > 100 µM.

Q: What about the Ki (Carbonic anhydrase 9) of the same compound?
A: The Ki was 0.0467 µM.

Q: Which Ki (Carbonic anhydrase 1) does the source give for `CCCOc1ccc2ccc(=O)oc2c1C(=O)CC` here?
A: The Ki was > 100 µM.

Q: And the Ki (Carbonic anhydrase 2)?
A: The Ki was > 100 µM.

Q: With `CC(=O)c1cc2ccc(=O)oc2cc1OCc1ccccc1` as the compound, how does the Ki (Carbonic anhydrase 1) read?
A: Its Ki is > 100 µM.

Q: What about the Ki (Carbonic anhydrase 9) of the same compound?
A: Its Ki is > 100 µM.

Q: With `CC(=O)c1cc2ccc(=O)oc2cc1OCCC12CC3CC(CC(C3)C1)C2` as the compound, how does the Ki (Carbonic anhydrase 1) read?
A: Its Ki is > 100 µM.

Q: And the Ki (Carbonic anhydrase 2)?
A: The Ki was > 100 µM.

Q: What about the Ki (Carbonic anhydrase 9) of the same compound?
A: The Ki was > 100 µM.

Q: What does the source list for `CC(=O)c1c(OCc2ccccc2)ccc2ccc(=O)oc12`?
A: Ki (Carbonic anhydrase 1): > 100 µM; Ki (Carbonic anhydrase 9): 0.0723 µM

Q: Which results are given for `CC(=O)c1c(OCCC23CC4CC(CC(C4)C2)C3)ccc2ccc(=O)oc12`?
A: Ki (Carbonic anhydrase 1): > 100 µM; Ki (Carbonic anhydrase 2): > 100 µM; Ki (Carbonic anhydrase 9): 0.0639 µM

Q: Which results are given for `CC(=O)c1c(O)ccc2ccc(=O)oc12`?
A: Ki (Carbonic anhydrase 1): > 100 µM; Ki (Carbonic anhydrase 2): > 100 µM; Ki (Carbonic anhydrase 9): 0.073 µM
